Measurements reported in BindingDB's records for PubMed 33592144 (Merck, 2021).

The compounds below were run against Proprotein convertase subtilisin/kexin type 9 (Homo sapiens, UniProt Q8NBP7) (assay: Inhibition of human C-terminal V5 epitope tagged PCSK9 by luciferase reporter assay).
`O=C(c1ccc(-n2nnc3ccccc32)cc1)N(c1ncccc1Cl)[C@@H]1CCCNC1` was tested, and the IC50 was 300 nM.
With `O=C(c1ccc(-c2cnn3cccnc23)cc1)N(c1ncccc1Cl)[C@@H]1CCCNC1` [US9227956, 2] the IC50 was 300 nM.
`COc1ccc(CCC(=O)N(c2nccc3ccccc23)[C@@H]2CCCNC2)cc1` showed an IC50 of 4500 nM.
